# Experimental data reported in the Deep4Chem optical property database.
# Experiment: photoluminescence quantum yield (fraction); solvent given as SMILES
structure (smiles),measurement,setting,value
COC(=O)C(NC(=O)OC(C)(C)C)c1ccc2oc(-c3ccc(OC(=O)c4ccccc4)cc3OC(=O)c3ccccc3)nc2c1 (stereo not drawn),photoluminescence quantum yield,in CC1CCCCC1,0.003
same,photoluminescence quantum yield,in CC#N,0.003
same,photoluminescence quantum yield,in CO,0.002
COc1ccc2c(-c3nc(-c4ccccc4Cl)no3)cc(=O)oc2c1,photoluminescence quantum yield,in CCO,0.39
same,photoluminescence quantum yield,in ClC(Cl)Cl,0.19
CCCCCCCCOc1ccc(-c2c3c4n(c(-c5ccc(OCCCCCCCC)cc5)c3c3n2[B-](F)(F)[n+]2ccccc2N=3)[B-](F)(F)[n+]2ccccc2N=4)cc1,photoluminescence quantum yield,in ClC(Cl)Cl,0.89
c1cc2c3c(c1)OCCCCCCCOc1cccc(c1-c1c4ccccc4c-3c3ccccc13)OCCCCCCCO2,photoluminescence quantum yield,in C1CCCCC1,0.98
Nc1ccc2c(c1)C(=O)N(C13C[C@H]4C[C@@H](C1)C[C@@H](C3)C4)C2=O,photoluminescence quantum yield,in C1CCCCC1,0.38
same,photoluminescence quantum yield,in C1CCOC1,0.59
same,photoluminescence quantum yield,in CC#N,0.62
same,photoluminescence quantum yield,in CCOC(C)=O,0.58
same,photoluminescence quantum yield,in CO,0.17
same,photoluminescence quantum yield,in CS(C)=O,0.8
same,photoluminescence quantum yield,in Cc1ccccc1,0.8
same,photoluminescence quantum yield,in ClCCl,0.85
Oc1cc(-c2ccco2)ccc1-c1nc2ccccc2s1,photoluminescence quantum yield,in CCO,0.137
same,photoluminescence quantum yield,in ClCCl,0.0812
same,photoluminescence quantum yield,in O,0.1
C(=C\c1cnccn1)/c1ccc(N(c2ccccc2)c2ccccc2)cc1,photoluminescence quantum yield,in ClCCl,0.41
CCOC(=O)C1=CN(c2ccccc2)C=C(C(=O)OCC)C1,photoluminescence quantum yield,in C1CCOC1,0.2
same,photoluminescence quantum yield,in CO,0.16
CCCCCCCCCCC1(CCCCCCCCCC)c2cc(-c3nc4ccccc4s3)ccc2-c2ccc(N3C(=O)c4ccc5c6ccc7c8c(ccc(c9ccc(c4c59)C3=O)c86)C(=O)N(c3ccc4c(c3)C(CCCCCCCCCC)(CCCCCCCCCC)c3cc(-c5nc6ccccc6s5)ccc3-4)C7=O)cc21,photoluminescence quantum yield,in Cc1ccccc1,0.23
same,photoluminescence quantum yield,in ClCCl,0.0025
COc1c2ccccc2c(OC)c2c1c1ccc(C(F)(F)F)cc1n2C,photoluminescence quantum yield,in C1CCCCC1,0.35
same,photoluminescence quantum yield,in CC#N,0.39
same,photoluminescence quantum yield,in CO,0.26
same,photoluminescence quantum yield,in ClCCl,0.36
CC(=O)c1ccc(-c2ccc3c(c2)C(=O)c2cc(-c4ccc(C(C)=O)cc4)ccc2-3)cc1,photoluminescence quantum yield,in C1CCOC1,0.03
COc1ccc(-c2nc(-c3ccc(OC)cc3C)nc(-c3ccc(N4c5ccccc5C5(c6ccccc6-c6ccccc65)c5ccccc54)cc3C)n2)c(C)c1,photoluminescence quantum yield,in O=P(c1ccccc1)(c1ccccc1)c1ccccc1Oc1ccccc1P(=O)(c1ccccc1)c1ccccc1,0.51
CC(C)(C)c1ccc(-c2c(-c3ccc(N(c4ccccc4)c4ccccc4)cc3)c(C#N)c(-c3ccc(N(c4ccccc4)c4ccccc4)cc3)c(-c3ccc(C(C)(C)C)cc3)c2-c2ccc(C(C)(C)C)cc2)cc1,photoluminescence quantum yield,in C1CCOC1,0.686
C=Cc1cc2ccccc2oc1=O,photoluminescence quantum yield,in CC#N,0.08
O=S1(=O)c2ccc(-c3ccc4c(c3)c3ccccc3n4-c3ccccc3)cc2C2(c3cc(-c4ccc5c(c4)c4ccccc4n5-c4ccccc4)ccc31)c1cc(-c3ccc4c(c3)c3ccccc3n4-c3ccccc3)ccc1S(=O)(=O)c1ccc(-c3ccc4c(c3)c3ccccc3n4-c3ccccc3)cc12,photoluminescence quantum yield,in CC1CCCO1,0.83
CC(C)(C)c1ccc2c(c1)sc1[n+]2[B-](F)(F)n2c(c3cccc4c(Br)ccc2c43)=N1,photoluminescence quantum yield,in C1CCOC1,0.63
same,photoluminescence quantum yield,in CC#N,0.64
same,photoluminescence quantum yield,in CCCCCC,0.68
same,photoluminescence quantum yield,in Cc1ccccc1,0.64
same,photoluminescence quantum yield,in ClCCl,0.72
O=C(O)C1=C/C(=C/C=[N+]2/c3cc(O)c(C[C@@H]4O[C@H](CO)[C@@H](O)C(O)[C@H]4O)cc3C[C@H]2C(=O)O)C[C@H](C(=O)O)N1 (stereo partly drawn),photoluminescence quantum yield,in CO,0.0015
same,photoluminescence quantum yield,in O,0.0007
same,photoluminescence quantum yield,in OCCO,0.0041
same,photoluminescence quantum yield,in [2H]O[2H],0.001
c1cc2ccc3cccc4c(-c5cc(-c6nccs6)nc(-c6nccs6)c5)cc(c1)c2c34,photoluminescence quantum yield,in CC#N,0.645
same,photoluminescence quantum yield,in CCCCCC,0.51
same,photoluminescence quantum yield,in CO,0.214
same,photoluminescence quantum yield,in ClC(Cl)Cl,0.627
CC1=[N+]2C(=C(Oc3cc(C)c4c(c3)CC[C@@](C)(CCC[C@H](C)CCC[C@H](C)CCCC(C)C)O4)c3ccc(C)n3[B-]2(F)F)C=C1c1cc2n(c1)[B-](F)(F)[N+]1=CC=CC1=C2c1c(C)cc(C)cc1C,photoluminescence quantum yield,in C1CCCCC1,0.45
same,photoluminescence quantum yield,in CCOC(C)=O,0.11
N#Cc1ccc2c(c1)CCc1nc(-c3ccc([N+](=O)[O-])cc3)c3c(c1-2)CCc1cc(C#N)ccc1-3,photoluminescence quantum yield,in C1CCOC1,0.043
same,photoluminescence quantum yield,in CC#N,0.039
same,photoluminescence quantum yield,in CCCCCC,0.3
same,photoluminescence quantum yield,in CCOC(C)=O,0.015
same,photoluminescence quantum yield,in CO,0.01
same,photoluminescence quantum yield,in CS(C)=O,0.073
same,photoluminescence quantum yield,in Cc1ccccc1,0.014
same,photoluminescence quantum yield,in ClCCl,0.292
COc1ccc(C2=C(c3ccc([N+](=O)[O-])cc3)C(c3ccccc3)=[N+]3C2=Nc2c(-c4ccc(OC)cc4)c(-c4ccc([N+](=O)[O-])cc4)c(-c4ccccc4)n2[B-]3(F)F)cc1,photoluminescence quantum yield,in Cc1ccccc1,0.05
COc1ccc(C(=Cc2ccc(/C=C(\C#N)c3ccc([N+](=O)[O-])cc3)cc2)c2ccc(OC)cc2)cc1,photoluminescence quantum yield,in C1CCOC1,0.045
CN(C)c1ccc2ccc3oc(=O)c(-c4ccccc4)nc3c2c1,photoluminescence quantum yield,in c1ccccc1,0.152
O=C1c2ccccc2-c2c(-c3cc(Cl)ccc3O)[nH]c(=O)n21,photoluminescence quantum yield,in CC#N,0.61
same,photoluminescence quantum yield,in CO,0.28
same,photoluminescence quantum yield,in ClCCl,0.78
CC(C)(C)C#Cc1ccc2c3cccc4cccc(c5cccc1c52)c43,photoluminescence quantum yield,in C1CCCCC1,0.91
N#Cc1c(-n2c3ccccc3c3ccccc32)c(F)c(-n2c3ccccc3c3ccccc32)c(-n2c3ccccc3c3ccccc32)c1-n1c2ccccc2c2ccccc21,photoluminescence quantum yield,in Cc1ccccc1,0.81
same,photoluminescence quantum yield,in c1ccc([Si](c2ccccc2)(c2ccc(-n3c4ccccc4c4ccccc43)cc2)c2ccc(-n3c4ccccc4c4ccccc43)cc2)cc1,1
N#Cc1cc2ccc(O)cc2oc1=N,photoluminescence quantum yield,in C1CCOC1,0.0262
same,photoluminescence quantum yield,in CC#N,0.0086
same,photoluminescence quantum yield,in CCOC(C)=O,0.072
same,photoluminescence quantum yield,in CS(C)=O,0.0022
same,photoluminescence quantum yield,in ClC(Cl)Cl,0.0342
O=C(O)c1ccc(-c2cnc(-c3ccc(N(c4ccccc4)c4ccccc4)cc3)s2)cc1,photoluminescence quantum yield,in CO,0.4
CCC1=C(C)C2=Cc3cccn3[B-](F)(F)[N+]2=C1C,photoluminescence quantum yield,in C1CCCCC1,0.7
same,photoluminescence quantum yield,in CC(C)=O,0.65
same,photoluminescence quantum yield,in CCO,0.69
same,photoluminescence quantum yield,in CCOC(C)=O,0.69
same,photoluminescence quantum yield,in CO,0.6
same,photoluminescence quantum yield,in OCC(F)(F)F,0.49
COc1cc2c(cc1/C=C/C1=CC(=C(C#N)C#N)CC(C)(C)C1)c1ccccc1n2C,photoluminescence quantum yield,in C1CCOC1,0.013
same,photoluminescence quantum yield,in CC#N,0.031
same,photoluminescence quantum yield,in CCO,0.021
same,photoluminescence quantum yield,in CCOC(C)=O,0.009
same,photoluminescence quantum yield,in CN(C)C=O,0.038
same,photoluminescence quantum yield,in CS(C)=O,0.059
same,photoluminescence quantum yield,in Cc1ccccc1,0.007
same,photoluminescence quantum yield,in ClC(Cl)Cl,0.018
same,photoluminescence quantum yield,in ClCCl,0.022
CC1(C)CCc2c(c3ccccc3c3nc4c5c(c6ccccc6c4nc23)OC(C)(C)CC5)O1,photoluminescence quantum yield,in C1CCCCC1,0.38
same,photoluminescence quantum yield,in C1CCOC1,0.34
same,photoluminescence quantum yield,in C1COCCO1,0.26
same,photoluminescence quantum yield,in CC#N,0.61
same,photoluminescence quantum yield,in CC(C)O,0.53
same,photoluminescence quantum yield,in CCCCCC,0.31
same,photoluminescence quantum yield,in CN(C)C=O,0.57
same,photoluminescence quantum yield,in CO,0.62
same,photoluminescence quantum yield,in ClC(Cl)Cl,0.43
same,photoluminescence quantum yield,in c1ccccc1,0.42
Cc1ccccc1-c1ccccc1C,photoluminescence quantum yield,in C1CCCCC1,0.01
CCCCCC(=O)c1ccc2c3c(sc2c1)-c1ccccc1P3(=O)c1ccccc1 (stereo not drawn),photoluminescence quantum yield,in ClCCl,0.15
N#CC(C#N)=Cc1ccc2c(c1)c1ccccc1n2-c1cccc2ccccc12,photoluminescence quantum yield,in ClCCl,0.05
CN1c2cc3nc4cc(Br)c(Br)cc4nc3cc2N(C)C1(C)C,photoluminescence quantum yield,in CCO,0.11
COc1nc(Cl)nc(Nc2ccc3c4cccc5cccc(c6cccc2c63)c54)n1,photoluminescence quantum yield,in C1COCCO1,0.4
same,photoluminescence quantum yield,in CC#N,0.32
same,photoluminescence quantum yield,in CCCCOCCCC,0.37
same,photoluminescence quantum yield,in CCOC(C)=O,0.33
Cc1ccc(/C2=c3\cc/c(o3)=C(\c3ccc(C)cc3)c3ccc([nH]3)-c3ccc4n3[B-](F)(F)[N+]3=C(C=CC3=C4c3ccco3)c3ccc2[nH]3)cc1,photoluminescence quantum yield,in ClC(Cl)Cl,0.08
COc1ccc(/C=C(\C)c2nc3ccccc3o2)cc1,photoluminescence quantum yield,in C1CCCCC1,0.002
Cc1cc(C)c(B(c2ccc(-n3c4ccccc4c4ccccc43)cc2)c2c(C)cc(C)cc2C)c(C)c1,photoluminescence quantum yield,in Cc1ccccc1,0.75
CN(C)c1ccc2c(c1)Cc1ccccc1-2,photoluminescence quantum yield,in C1CCOC1,0.39
same,photoluminescence quantum yield,in C1COCCO1,0.38
same,photoluminescence quantum yield,in CC(=O)N(C)C,0.4
same,photoluminescence quantum yield,in CCCCCC,0.25
same,photoluminescence quantum yield,in CCCCCCO,0.22
same,photoluminescence quantum yield,in CCCCCO,0.19
same,photoluminescence quantum yield,in CCCCO,0.19
same,photoluminescence quantum yield,in CCCO,0.21
same,photoluminescence quantum yield,in CCO,0.2
same,photoluminescence quantum yield,in CCOC(C)=O,0.4
same,photoluminescence quantum yield,in CCOCC,0.31
same,photoluminescence quantum yield,in CO,0.2
same,photoluminescence quantum yield,in CS(C)=O,0.42
same,photoluminescence quantum yield,in O,0.12
same,photoluminescence quantum yield,in OC1CCCCC1,0.22
CC(C)(C)c1ccc(C#Cc2cc3c(C#Cc4ccc(C(C)(C)C)cc4)c(C#Cc4ccc(C(C)(C)C)cc4)c4cc(C#Cc5ccc(C(C)(C)C)cc5)cc5c(C#Cc6ccc(C(C)(C)C)cc6)c(C#Cc6ccc(C(C)(C)C)cc6)c(c2)c3c45)cc1,photoluminescence quantum yield,in ClCCl,0.23
F[B-]1(F)OC(c2ccccc2)=CC(c2ccccc2)=[O+]1,photoluminescence quantum yield,in CC#N,0.8
same,photoluminescence quantum yield,in ClC(Cl)(Cl)Cl,0.15
N#Cc1c(-n2c3ccccc3c3ccccc32)c(-n2c3ccccc3c3ccccc32)c(-n2c3ccccc3c3ccccc32)c(-n2c3ccc(-c4ccccc4)cc3c3cc(-c4ccccc4)ccc32)c1-n1c2ccccc2c2ccccc21,photoluminescence quantum yield,in Cc1ccccc1,0.85
CCOC(=O)CN(CC(=O)OCC)c1ccc(-c2cc(-c3ccncc3)nc(-c3ccncc3)c2)cc1,photoluminescence quantum yield,in CC#N,0.3
same,photoluminescence quantum yield,in CCOC(C)=O,0.48
same,photoluminescence quantum yield,in CN(C)C=O,0.2
same,photoluminescence quantum yield,in CS(C)=O,0.23
same,photoluminescence quantum yield,in c1ccccc1,0.5
CC(=O)OC[C@@H]1O[C@H](N2C=CC3=Nc4nc(C)[n+](C)cc4CN3C2=O)[C@@H](O)[C@H]1O,photoluminescence quantum yield,in CC#N,0.89
same,photoluminescence quantum yield,in CCO,0.05
same,photoluminescence quantum yield,in O,0.2
